Measurements from US20230242496A1, “SOX11 INHIBITORS FOR TREATING MANTLE CELL LYMPHOMA” (Icahn School of Medicine At Mount Sinai, priority 2020, published 2023).

What was measured:
(His)6-SOX11-DBD protein = target: T1, (His)6-SOX11-DBD protein (Homo sapiens, UniProt P35716); assay: Surface Plasmon Resonance (SPR) assay; type: binding; settings: immobilized recombinant (His)6-SOX11-DBD, 25° C., compounds 5-40 μM, mean of three experiments
T1 construct: Recombinant (His)6-SOX11-DBD protein was immobilized
T1 sequence (P35716 49-117 limits assumed): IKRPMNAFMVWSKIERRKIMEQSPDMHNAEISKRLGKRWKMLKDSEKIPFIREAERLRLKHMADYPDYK
Experimental: Surface Plasmon Resonance (SPR) Assay
Recombinant (His)6-SOX11-DBD protein was immobilized at a flow rate of 10 μl/min for 180 seconds to the right channel of a gold-coated SCR NiHC200M sensor chip (XanTec bioanalytics) placed in a Reichert 2SPR instrument (Reichert Technologies). The left channel, without immobilized protein, was used as a reference. […] Compounds flowed sequentially from the left to the right channel over the prepared sensor chip surface. 120 seconds association phase with each compound concentration was followed by 300 seconds dissociation phase with the assay buffer alone. The ka, kd, and KD values were determined from the sensograms for at least 3 concentrations of each compound by curve fitting the data using Reichert's TraceDrawer software. The mean KD value for each compound was calculated from three separate experiments.

Jeko-1 (SOX11+) = assay: Cell viability assay (CellTiter-Blue resazurin reduction); type: cell-based; settings: JeKo-1 cells; for IC50: 0-40 μM
Experimental: Cell viability was determined by a fluorometric resazurin reduction method (CellTiter-Blue; Promega, Madison, Wis.) following the manufacturer's instructions. […] Cells were incubated for 72 hours. After incubation, 20 μl CellTiter-Blue Cell was added to each well and incubated for another 2 hours. […] The number of viable cells in each treated well was calculated, based on the linear least squares regression of the standard curve (OD vs. cell concentration). The viability of cells treated with compounds was normalized to the viability of cells treated with 0.2% Dimethyl sulfoxide (DMSO). Cell counts were confirmed with Trypan Blue Exclusion Assay on the Countess automated cell counter (Invitrogen) according to the manufacturer's specifications. The average and mean standard deviation were calculated from three separate experiments. IC50 values were calculated using the GraphPad Prism (version 4.00) based on a sigmoidal dose-response equation.

[1] = Homo sapiens, JeKo-1, 72 h, 20 μM compound, normalized to 0.2% DMSO

| Structure (SMILES) | Kd ((His)6-SOX11-DBD protein) | IC50 (Jeko-1 (SOX11+); Homo sapiens, JeKo-1, 72 h) | viability at 20 µM (Jeko-1 (SOX11+); [1]) | Jeko-1 Viability at 20 μM (%) (Jeko-1 (SOX11+); 20 μM compound, 72 hours, normalized to 0.2% DMSO, 20 µM) | IC50 (Jeko-1 (SOX11+); 72 hours) |
| --- | --- | --- | --- | --- | --- |
| O=C(Nc1ccc(S(=O)(=O)Nc2ccccc2)cc1)c1ccc2ccncc2c1 | 37.9 µM | 5 µM | 24.8% |  |  |
| Cc1ccccc1COc1cccc(NC(=O)c2ccc3c(c2)NC(=O)C(C)S3)c1 (centres unmarked) | 5.41 µM |  | 110% |  |  |
| CC1Sc2ccc(C(=O)Nc3ccc(S(=O)(=O)Nc4ccncc4)cc3)cc2NC1=O (centres unmarked) | 30.9 µM | > 20 µM | 103% |  |  |
| CC1Sc2ccc(C(=O)Nc3cccc(OCc4ccccc4)c3)cc2NC1=O (centres unmarked) | 13.7 µM |  | 107% |  |  |
| CC1Sc2ccc(C(=O)Nc3ccc(S(=O)(=O)N4CCNCC4)cc3)cc2NC1=O (centres unmarked) | 17.5 µM | > 20 µM | 92.4% |  |  |
| CC1Sc2ccc(C(=O)Nc3ccc(S(=O)(=O)Nc4ccccc4)cc3)cc2NC1=O (centres unmarked) [drawing 468] | 38 µM |  |  | 0.83% | 12.5 µM |
| CC1Sc2ccc(C(=O)Nc3ccc(CNc4ccccc4)cc3)cc2NC1=O (centres unmarked) | 0.258 µM |  | 108% |  |  |
| CC1Sc2ccc(C(=O)Nc3ccc(Cl)c(S(=O)(=O)N(C)C(C)C)c3)cc2NC1=O (centres unmarked) | 13.4 µM |  | 12% |  |  |
| CC1Sc2ccc(C(=O)Nc3ccc(CN(C)C(C)C)cc3)cc2NC1=O (centres unmarked) | 1.17 µM |  | 105% |  |  |
| O=C(Nc1ccc(S(=O)(=O)Nc2ccccc2)cc1)c1ccc2ccccc2c1 | 3.42 µM | > 20 µM | 96.3% |  |  |
| O=C(Nc1ccc2cccnc2c1)c1ccc(OCc2ccccc2)cc1 | 3.58 µM | 8 µM | 22.8% |  |  |
| Cc1ccc(NC(=O)c2ccc3c(c2)NC(=O)CS3)cc1S(=O)(=O)Nc1cccc(Cl)c1 | 3.37 µM | 10 µM | 26.3% |  |  |
| O=C(Nc1ccc(S(=O)(=O)Nc2ccccc2)cc1)c1ccc2cn[nH]c2c1 | 48.4 µM | 10 µM | 17.2% |  |  |
| CC1Sc2ccc(C(=O)Nc3ccc(S(N)(=O)=O)cc3)cc2NC1=O (centres unmarked) | 83.3 µM | > 20 µM | 101% |  |  |
| c1ccc(COc2ccc(CNc3ccc4cnccc4c3)cc2)cc1 | 33.7 µM |  | 1.2% |  |  |
| CC1Sc2ccc(C(=O)Nc3cccc(S(=O)(=O)Nc4ccc(F)cc4)c3)cc2NC1=O (centres unmarked) | 8.48 µM | > 20 µM | 55.6% |  |  |
| CC1Sc2ccc(C(=O)Nc3ccc(CN4CCCCC4)cc3)cc2NC1=O (centres unmarked) | 3.43 µM |  | 108% |  |  |
| CC1Sc2ccc(C(=O)Nc3cccc(S(=O)(=O)Nc4ccc(Cl)cc4)c3)cc2NC1=O (centres unmarked) | 4.24 µM | 11.5 µM | 10.4% |  |  |
| CN1C(=O)COc2ccc(C(=O)Nc3ccc(S(=O)(=O)N4CCCCC4)cc3)cc21 | 5.35 µM | > 20 µM | 90.6% |  |  |

| Structure (SMILES) | Kd ((His)6-SOX11-DBD protein) | IC50 (Jeko-1 (SOX11+); Homo sapiens, JeKo-1, 72 h) | viability at 20 µM (Jeko-1 (SOX11+); [1]) | Jeko-1 Viability at 20 μM (%) (Jeko-1 (SOX11+); 20 μM compound, 72 hours, normalized to 0.2% DMSO, 20 µM) | IC50 (Jeko-1 (SOX11+); 72 hours) |
| --- | --- | --- | --- | --- | --- |
| CC1Sc2ccc(C(=O)Nc3ccc(CN(C)c4ccccc4)cc3)cc2NC1=O (centres unmarked) | 3.62 µM |  | 84.9% |  |  |
| CC1Sc2ccc(C(=O)ONc3ccc(S(=O)(=O)Nc4ccccc4)nc3)cc2NC1=O (centres unmarked) | 5.07 µM | > 20 µM | 90% |  |  |
| CCC1Sc2ccc(C(=O)Nc3ccc(S(=O)(=O)Nc4ccccc4)cc3)cc2NC1=O (centres unmarked) | 1.43 µM | 12 µM | 36.7% |  |  |
| CC1Sc2ccc(C(=O)Nc3cccc(S(=O)(=O)N4CCN(C(=O)OC(C)(C)C)CC4)c3)cc2NC1=O (centres unmarked) | 1.76 µM | 18 µM | 36.4% |  |  |
| CC1Sc2ccc(C(=O)Nc3cccc(S(=O)(=O)N(C)C(C)C)c3)cc2NC1=O (centres unmarked) | 65.9 µM | 6 µM | 9.64% |  |  |
| Cc1ccccc1COc1ccc(NC(=O)c2ccc3c(c2)NC(=O)C(C)S3)cc1 (centres unmarked) | 7.91 µM |  | 99.2% |  |  |
| C[C@@H]1Sc2ccc(C(=O)Nc3ccc(S(=O)(=O)Nc4ccccc4)cc3)cc2NC1=O | 31.9 µM | 12.5 µM | 12.8% |  |  |
| CC1Sc2ccc(C(=O)Nc3ccc(S(=O)(=O)Nc4ccc(O)cc4)cc3)cc2NC1=O (centres unmarked) | 32 µM | < 20 µM | 13.7% |  |  |
| CC1Sc2ccc(C(=O)Nc3cccc(S(=O)(=O)N4CCNCC4)c3)cc2NC1=O (centres unmarked) | 131 µM | > 20 µM | 114% |  |  |
| Nc1cc(C(=O)Nc2ccc(S(=O)(=O)Nc3ccccc3)cc2)ccc1/C=C\C(=O)O | 2.22 µM | 9 µM | 12.4% |  |  |
| CN(c1ccccc1)S(=O)(=O)c1ccc(NC(=O)c2ccc3nncn3c2)cc1 | 4.07 µM | > 20 µM | 126% |  |  |
| O=C(Nc1cccc(CNc2ccccc2)c1)c1ccc2c(c1)CCCS2 | 7.34 µM |  | 85.3% |  |  |
| CC1Sc2ccc(C(=O)Nc3cccc(S(=O)(=O)NC4CCCC4)c3)cc2NC1=O (centres unmarked) | 15.4 µM | 16 µM | 38.5% |  |  |
| CC1Sc2ccc(C(=O)Nc3ccc(S(=O)(=O)Nc4ccc(C(F)(F)F)cc4)cc3)cc2NC1=O (centres unmarked) | 1.57 µM | > 20 µM | 63.6% |  |  |
| CC1Oc2ccc(C(=O)Nc3ccc(S(=O)(=O)Nc4ccccc4)cc3)cc2NC1=O (centres unmarked) | 15.3 µM | 12 µM | 9.09% |  |  |
| CC1Sc2ccc(C(=O)Nc3cccc(S(=O)(=O)Nc4ccccc4C(F)(F)F)c3)cc2NC1=O (centres unmarked) | 91.7 µM | > 20 µM | 73.6% |  |  |
| CC1Sc2ccc(C(=O)Nc3cccc(S(=O)(=O)Nc4ccccc4)c3)cc2NC1=O (centres unmarked) | 18.6 µM | 10 µM | 2.81% |  |  |
| CC1Sc2ccc(C(=O)Nc3cccc(S(=O)(=O)NC4CCN(C(=O)OC(C)(C)C)CC4)c3)cc2NC1=O (centres unmarked) | 142 µM | 15 µM | 13% |  |  |
| CCN(CC)S(=O)(=O)c1ccc(NC(=O)c2ccc3c(c2)NC(=O)C(C)S3)cc1 (centres unmarked) | 30.9 µM | 7.5 µM | 0.6% |  |  |

| Structure (SMILES) | Kd ((His)6-SOX11-DBD protein) | IC50 (Jeko-1 (SOX11+); Homo sapiens, JeKo-1, 72 h) | viability at 20 µM (Jeko-1 (SOX11+); [1]) | Jeko-1 Viability at 20 μM (%) (Jeko-1 (SOX11+); 20 μM compound, 72 hours, normalized to 0.2% DMSO, 20 µM) | IC50 (Jeko-1 (SOX11+); 72 hours) |
| --- | --- | --- | --- | --- | --- |
| O=C(Nc1cccc(OCc2ccccc2)c1)c1ccc2snnc2c1 | 9.61 µM | > 20 µM | 98.1% |  |  |
| CC1Sc2ccc(C(=O)Nc3ccc(CNc4cccc(S(=O)(=O)F)c4)cc3)cc2NC1=O (centres unmarked) | 1.65 µM |  |  |  | 16 µM |
| CC1Sc2ccc(C(=O)Nc3ccc(S(=O)(=O)Nc4ccccc4)cc3F)cc2NC1=O (centres unmarked) | 31 µM | > 20 µM | 90% |  |  |
| CC1Sc2ccc(C(=O)Nc3ccc(C(=O)Nc4ccccc4)cc3)cc2NC1=O (centres unmarked) | 13.7 µM | > 20 µM | 97.5% |  |  |
| O=C(Nc1ccc(S(=O)(=O)Nc2ccccc2)cc1)c1ccc2oc(=O)[nH]c2c1 | 8.68 µM | 20 µM | 51.8% |  |  |
| CN(c1ccccc1)S(=O)(=O)c1cccc(NC(=O)c2ccc3snnc3c2)c1 | 8.33 µM | 10 µM | 10.6% |  |  |
| CC1Sc2ccc(NC(=O)c3ccc(S(=O)(=O)Nc4ccccc4)c(F)c3)cc2NC1=O (centres unmarked) | 16.1 µM | > 20 µM | 75.8% |  |  |
| CC1Sc2ccc(C(=O)Nc3ccc(S(=O)(=O)Nc4cccnc4)cc3)cc2NC1=O (centres unmarked) | 7.23 µM | > 20 µM | 92% |  |  |
| CC1Sc2ccc(C(=O)Nc3ccc(S(=O)(=O)NC4CCCCC4)cc3)cc2NC1=O (centres unmarked) | 19 µM | 8 µM | 30.4% |  |  |
| CN1C(=O)CSc2ccc(C(=O)Nc3ccc(S(=O)(=O)N4CCCCC4)c(Cl)c3)cc21 | 2.75 µM |  | 4.13% |  |  |
| Cc1ccc(NS(=O)(=O)c2cccc(NC(=O)c3ccc4c(c3)NC(=O)C(C)S4)c2)cc1 (centres unmarked) | 6.08 µM | 7 µM | 2.16% |  |  |
| CC1Sc2ccc(C(=O)Nc3ccc(S(=O)(=O)N4CCCC4)c(Cl)c3)cc2NC1=O (centres unmarked) | 13.8 µM |  | 8.93% |  |  |
| CC1Sc2ccc(C(=O)Nc3ccc(S(=O)(=O)NC4CC4)cc3)cc2NC1=O (centres unmarked) | 18.9 µM | 7 µM | 14.9% |  |  |
| CC1Sc2ccc(C(=O)Nc3cccc(S(=O)(=O)Nc4ccncc4)c3)cc2NC1=O (centres unmarked) | 21.2 µM | > 20 µM | 95.8% |  |  |
| O=C(Nc1ccc(S(=O)(=O)Nc2ccccc2)cc1)c1ccc2cnccc2c1 | 134 µM | 15 µM | 6.45% |  |  |
| Cc1cccc(NS(=O)(=O)c2ccc(NC(=O)c3ccc4c(c3)NC(=O)C(C)S4)cc2)c1 (centres unmarked) | 1.16 µM | 11 µM | 0.58% |  |  |
| CC1Sc2ccc(C(=O)Nc3ccc(S(=O)(=O)NC4CCCC4)cc3)cc2NC1=O (centres unmarked) | 13.4 µM | 15 µM | 36.3% |  |  |
| CC1Sc2ccc(C(=O)Nc3ccc(S(=O)(=O)Nc4ccccc4)cc3Cl)cc2NC1=O (centres unmarked) | 3.1 µM | < 20 µM | 36.2% |  |  |
